Results taken from PMC7296167, “SrrB, a Pseudo-Receptor Protein, Acts as a Negative Regulator for Lankacidin and Lankamycin Production in Streptomyces rochei” (Frontiers in Microbiology, 2020).

Tests used:
SrrA = target: T1, SrrA (Streptomyces rochei, UniProt Q83X22); experiment: gel shift assay, dissociation from […]-labelled srrB probe B1 and srrY probe Y1; type: binding; settings: […] SRB1 on probe B1, concentration series on probe Y1; […] SrrA, […] probe, […] C, pH […]
T1 construct: recombinant, overexpressed in E. coli, prepared as in Yamamoto et al. 2008
T1 sequence (Q83X22 1-222): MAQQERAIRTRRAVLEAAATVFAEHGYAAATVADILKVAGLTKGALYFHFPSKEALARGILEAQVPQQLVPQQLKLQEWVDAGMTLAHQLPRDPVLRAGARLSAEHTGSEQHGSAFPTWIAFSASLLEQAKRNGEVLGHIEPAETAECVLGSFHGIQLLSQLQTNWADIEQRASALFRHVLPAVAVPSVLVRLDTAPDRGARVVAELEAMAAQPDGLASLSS

SrrB = target: T2, SrrB (Streptomyces rochei, UniProt Q83X25); experiment: gel shift assay, dissociation from […]-labelled srrY promoter probe Y1; type: binding; settings: 0.5 nM probe Y1, 2,000 nM SrrB, 26 C, pH 8.0; DNA release read-out
T2 construct: pET32b(+) His6 fusion from E. coli BL21(DE3)pLysS; N-terminal tag removed with enterokinase
T2 sequence (Q83X25 1-228): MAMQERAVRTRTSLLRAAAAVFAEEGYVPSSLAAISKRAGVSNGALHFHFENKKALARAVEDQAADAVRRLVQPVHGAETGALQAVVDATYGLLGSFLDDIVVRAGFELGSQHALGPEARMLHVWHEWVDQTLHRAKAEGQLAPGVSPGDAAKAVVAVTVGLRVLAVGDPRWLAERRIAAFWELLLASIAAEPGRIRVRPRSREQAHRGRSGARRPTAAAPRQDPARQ

Compound: CC1=C([C@H](O)CCCCC(=O)CC(C)C)C(=O)OC1O (some centres unmarked) [compound 7, SRB1]
- gel shift assay, dissociation from 32P-labelled srrB probe B1 and srrY probe Y1 (SrrA): Addition of SRB led to dissociation of SrrA from probe B1
- concentration required for dissociation (SrrB): 1 mM
